ChEMBL document CHEMBL1201861, “Genomics of Drug Sensitity in Cancer screening data, Wellcome Trust Sanger Institute”
pIC50: −log10 of the molar value.

Experiments:
U-698-M = test: cells; type: functional, cell-based, Homo sapiens; settings: Homo sapiens, U-698-M
Description: SANGER: Inhibition of human U-698-M cell growth in a cell viability assay.

ST486 = test: SANGER: Inhibition of human ST486 cell growth in a cell viability assay.; type: functional, cell-based; settings: Homo sapiens, ST486
DG-75 = test: cells; type: functional, cell-based, Homo sapiens; settings: Homo sapiens, DG-75;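 further: growth inhibition of DG-75 cells, read out with a cell viability assay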
Description: SANGER: Inhibition of human DG-75 cell growth in a cell viability assay.

NCI-H1522 = test: cells; type: functional, cell-based, Homo sapiens; settings: Homo sapiens, NCI-H1522;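 further: growth inhibition of NCI-H1522 cells, read out with a cell viability assay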
Description: SANGER: Inhibition of human NCI-H1522 cell growth in a cell viability assay.

LB373-MEL-D = test: cells; type: functional, cell-based, Homo sapiens; settings: Homo sapiens, LB373-MEL-D;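 further: growth inhibition of the cell line, read out in a cell viability assay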
Description: SANGER: Inhibition of human LB373-MEL-D cell growth in a cell viability assay.

EB2 = test: cells; type: functional, cell-based, Homo sapiens; settings: Homo sapiens, EB2;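 further: growth inhibition of EB2 cells, read out with a cell viability assay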
Description: SANGER: Inhibition of human EB2 cell growth in a cell viability assay.

THP-1 = test: cells; type: functional, cell-based, Homo sapiens; settings: Homo sapiens, THP-1;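 further: growth inhibition of THP-1 cells, read out via a cell viability assay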
Description: SANGER: Inhibition of human THP-1 cell growth in a cell viability assay.

SU-DHL-1 = test: SANGER: Inhibition of human SU-DHL-1 cell growth in a cell viability assay.; type: functional, cell-based; settings: Homo sapiens, SU-DHL-1
EHEB = test: cells; type: functional, cell-based; settings: Homo sapiens;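 further: growth inhibition of human EHEB cells, read out with a cell viability assay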
Description: SANGER: Inhibition of human EHEB cell growth in a cell viability assay.

TE-15 = test: cells; type: functional, cell-based, Homo sapiens; settings: Homo sapiens, TE-15;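 further: cell viability readout of growth inhibition in TE-15 cells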
Description: SANGER: Inhibition of human TE-15 cell growth in a cell viability assay.

NCI-H322M = test: cells; type: functional, cell-based, Homo sapiens; settings: Homo sapiens, NCI-H322M;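 further: cell viability assay measuring inhibition of growth of human NCI-H322M cells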
Description: SANGER: Inhibition of human NCI-H322M cell growth in a cell viability assay.

BL-70 = test: SANGER: Inhibition of human BL-70 cell growth in a cell viability assay.; type: functional, cell-based; settings: Homo sapiens, BL-70
BL-41 = test: cells; type: functional, cell-based; settings: Homo sapiens;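 further: growth inhibition of human BL-41 cells, read out with a cell viability assay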
Description: SANGER: Inhibition of human BL-41 cell growth in a cell viability assay.

DMS-79 = test: cells; type: functional, cell-based, Homo sapiens; settings: Homo sapiens, DMS-79
Description: SANGER: Inhibition of human DMS-79 cell growth in a cell viability assay.

NCI-H524 = test: cells; type: functional, cell-based, Homo sapiens; settings: Homo sapiens, NCI-H524;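 further: growth inhibition of human NCI-H524 cells, read out through a cell viability assay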
Description: SANGER: Inhibition of human NCI-H524 cell growth in a cell viability assay.

BOKU = test: cells; type: functional, cell-based; settings: Homo sapiens;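 further: growth inhibition of the human BOKU cell line, read out by a cell viability assay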
Description: SANGER: Inhibition of human BOKU cell growth in a cell viability assay.

WSU-NHL = test: cells; type: functional, cell-based, Homo sapiens; settings: Homo sapiens, WSU-NHL;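 further: growth inhibition of human WSU-NHL cells, read out with a cell viability assay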
Description: SANGER: Inhibition of human WSU-NHL cell growth in a cell viability assay.

NCI-H1417 = test: cells; type: functional, cell-based, Homo sapiens; settings: Homo sapiens, NCI-H1417;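 further: human NCI-H1417 cells, growth inhibition determined with a cell viability readout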
Description: SANGER: Inhibition of human NCI-H1417 cell growth in a cell viability assay.

RL = test: cells; type: functional, cell-based, Homo sapiens; settings: Homo sapiens, RL
Description: SANGER: Inhibition of human RL cell growth in a cell viability assay.

HEC-1 = test: cells; type: functional, cell-based; settings: Homo sapiens;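 further: growth inhibition of the cell line, read out with a cell viability assay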
Description: SANGER: Inhibition of human HEC-1 cell growth in a cell viability assay.

23132-87 = test: cells; type: functional, cell-based; settings: Homo sapiens
Description: SANGER: Inhibition of human 23132-87 cell growth in a cell viability assay.

Row | Structure (SMILES) | pIC50 (U-698-M) | pIC50 (ST486) | pIC50 (DG-75) | pIC50 (NCI-H1522) | pIC50 (LB373-MEL-D) | pIC50 (EB2) | pIC50 (THP-1) | pIC50 (SU-DHL-1) | pIC50 (EHEB) | pIC50 (TE-15) | pIC50 (NCI-H322M) | pIC50 (BL-70) | pIC50 (BL-41) | pIC50 (DMS-79) | pIC50 (NCI-H524) | pIC50 (BOKU) | pIC50 (WSU-NHL) | pIC50 (NCI-H1417) | pIC50 (RL) | other results
1 | COc1cc(N2CCC(N3CCN(C)CC3)CC2)ccc1Nc1ncc(Cl)c(Nc2ccccc2S(=O)(=O)C(C)C)n1 [TAE-684] | < 5.70 | < 5.70 | < 5.70 | < 5.70 | < 5.70 | < 5.70 | < 5.70 | 7.31 | < 5.70 | 6.29 | < 5.70 | 6.00 | 5.75 | < 5.70 | 5.78 | < 5.70 | < 5.70 | < 5.70 | < 5.70 | 
2 | NC(=O)c1cccc(-c2cc(Nc3ccc(OC(F)(F)F)cc3)ncn2)c1 | < 5.89 | < 5.89 | < 5.89 | < 5.89 | < 5.89 | < 5.89 | < 5.89 | < 5.89 | < 5.89 | < 5.89 | < 5.89 | < 5.89 | < 5.89 | < 5.89 | < 5.89 | < 5.89 | < 5.89 | < 5.89 | < 5.89 | 
3 | CO[C@@H]1[C@H](N(C)C(=O)c2ccccc2)C[C@H]2O[C@]1(C)n1c3ccccc3c3c4c(c5c6ccccc6n2c5c31)C(=O)NC4 [MIDOSTAURIN] |  | 6.46 |  |  |  |  |  | < 6.29 |  |  |  | < 6.29 |  |  |  |  |  |  |  | pIC50 (HEC-1): < 6.29; pIC50 (23132-87): < 6.29
4 | Cc1cc(N2CCOCC2)cc2[nH]c(-c3c(NC[C@@H](O)c4cccc(Cl)c4)cc[nH]c3=O)nc12 | < 5.29 | < 5.29 | < 5.29 | < 5.29 | < 5.29 | < 5.29 | < 5.29 | < 5.29 | < 5.29 | 6.09 | < 5.29 | 5.32 | < 5.29 | < 5.29 | < 5.29 | 5.50 | < 5.29 | < 5.29 | < 5.29 | 
5 | C[C@@H](Oc1cc(-c2cnn(C3CCNCC3)c2)cnc1N)c1c(Cl)ccc(F)c1Cl [CRIZOTINIB] | < 5.70 | < 5.70 | < 5.70 | < 5.70 | < 5.70 | < 5.70 | < 5.70 | 6.47 | < 5.70 | < 5.70 | < 5.70 | < 5.70 | < 5.70 | < 5.70 | < 5.70 | < 5.70 | < 5.70 | < 5.70 | < 5.70 | 
